Measurements published in patent publication US8598084B2, “Synergistic herbicide/insecticide composition containing certain pyridine carboxylic acids and certain insecticides” (priority 2010, dated 2013).
Several values for one entry are separate records, joined by “and”; a condition that tells them apart may be missing. Equal values may be shown once.

Legend:
Type in all cases: in vivo
[1] = system: scented mayweed (Matricaria chamomila L; MATCH); test: Postemergence herbicidal activity of mixtures, greenhouse, visual injury vs control
Protocol: (§1) Evaluation of Postemergence Herbicidal Activity of Mixtures in Cereal Crops
(§2) Seeds of the desired test plant species were planted in Sun Gro MetroMix® 306 planting mixture, which typically has a pH of 6.0 to 6.8 and an organic matter content of about 30 percent, in plastic pots with a surface area of 103.2 square centimeters (cm^2). When required to ensure good germination and healthy plants, a fungicide treatment and/or other chemical or physical treatment was applied. The plants were grown for 7-36 days (d) in a greenhouse with an approximate 14 hour (h) photoperiod which was maintained at about 18° C. during the day and 17° C. during the night. Nutrients and water were added on a regular basis and supplemental lighting was provided with overhead metal halide 1000-Watt lamps as necessary. The plants were employed for testing when they reached the second or third true leaf stage.
(§3) Treatments consisted of an insecticidal compound (as listed in Tables 1 through 18) and the cereal herbicide, 4-amino-3-chloro-6-(4-chloro-2-fluoro-3-methoxyphenyl)pyridine-2-carboxylic acid, alone and in combination. Weighed amounts of esters (methyl) or salts (triethylammonium, TEA) of 4-amino-3-chloro-6-(4-chloro-2-fluoro-3-methoxyphenyl)pyridine-2-carboxylic acid (Compound I) were placed in 25 milliliter (mL) glass vials and dissolved in a volume of 97:3 volume per volume (v/v) acetone/dimethyl sulfoxide (DMSO) to obtain 4.5 milligrams active ingredient per mL (mg ai/mL) concentrated solutions. […] The concentrated solutions of Compound I were diluted to 1.5 mg ai/mL with the addition of 2 volumes of an aqueous mixture containing acetone, water, isopropyl alcohol, DMSO, Agri-dex crop oil concentrate, and Triton® X-77 surfactant in a 64.7:26.0:6.7:2.0:0.7:0.01 v/v ratio. A dilution solution was prepared by mixing 1 volume of 97:3 v/v acetone/DMSO and 2 volumes of an aqueous mixture containing acetone, water, isopropyl alcohol, DMSO, Agri-dex crop oil concentrate, and Triton® X-77 surfactant in a 64.7:26.0:6.7:2.0:0.7:0.01 v/v ratio. Compound requirements are based upon a 12 mL application volume at a rate of 187 liters per hectare (L/ha). The concentrated solutions of the cereal insecticides were prepared following the same procedure. Weighed amounts of insecticide were placed in 25 milliliter (mL) glass vials and dissolved in a volume of 97:3 v/v acetone/DMSO to obtain concentrated insecticide solutions. The concentrated solutions of the safener were prepared following the same procedure. Weighed amounts of safener were placed in 25 mL glass vials and dissolved in a volume of 97:3 v/v acetone/DMSO to obtain concentrated safener solutions. The concentrated solutions were diluted to 0.75 mg/mL with an aqueous mixture of 1.5% v/v of Agri-dex crop oil concentrate.
(§4) Spray solutions of the cereal herbicide and the insecticidal compound mixtures were prepared by adding the concentrated solutions to the appropriate amount of dilution solution to form 12 mL spray solution with active ingredients in combinations. Spray solutions of the cereal herbicide, herbicide safener and the insecticidal compound mixtures were prepared by adding the concentrated solutions to the appropriate amount of dilution solution to form 12 mL spray solution with active ingredients in combinations. Formulated compounds were applied to the plant material with an overhead Mandel track sprayer equipped with 8002E nozzles calibrated to deliver 187 L/ha over an application area of 0.503 square meters (m^2) at a spray height of 18 inches […] above average plant canopy. Control plants were sprayed in the same manner with the solvent blank.
(§5) The treated plants and control plants were placed in a greenhouse as described above and watered by sub-irrigation to prevent wash-off of the test compounds. […]

[2] = system: wild pansy (Viola tricolor L; VIOTR); test: as above; settings: for pest or weed control at 35 g/ha: 35 g/ha alone
Protocol: as §1, §2, §3, §4, §5

[3] = system: kochia (Kochia scoparia L; KCHSC); test: as above; settings: for pest or weed control at 35 g/ha: 35 g/ha alone
Protocol: as §1, §2, §3, §4, §5

[4] = system: Russian thistle (Salsola iberica L; SASKR); test: as above; settings: for pest or weed control at 35 g/ha: 35 g/ha alone
Protocol: as §1, §2, §3, §4, §5

[5] = system: wheat (Triticum aestivum L; TRZAS); test: Postemergence crop injury and safening, greenhouse, visual injury vs control; settings: for Ob (observed injury): crop injury
Protocol: as §1, §2, §3, §4, §5

[6] = system: barley (Hordeum vulgare L; HORVS); test: as above; settings: for Ob (observed injury): crop injury
Protocol: as §1, §2, §3, §4, §5

[7] = system: bird's-eye speedwell (Veronica persica L; VERPE); test: Postemergence herbicidal activity of mixtures, greenhouse, visual injury vs control; settings: Veronica persica, post-emergence, read-out: Ob (observed injury); for pest or weed control at 35 g/ha: 35 g/ha alone;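 for all read-outs here: visual score 0 means no injury and 100 means complete kill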
Protocol: as §1, §2, §3, §4, §5

[8] = system: redroot pigweed (Amaranthus retroflexus L; AMARE); test: as above
Protocol: as §1, §2, §3, §4, §5

[9] = system: Canada thistle (Cirsium arvense L; CIRAR); test: as above
Protocol: as §1, §2, §3, §4, §5

[10] = Viola tricolor, post-emergence, read-out: Ob (observed injury)
[11] = Bassia scoparia, post-emergence, read-out: Ob (observed injury)
[12] = Salsola tragus, post-emergence, read-out: Ob (observed injury)
[13] = application rate g/ha: Compound I methyl ester 35, Malathion 0, Cloquintocet 0

CCOC(=O)CC(SP(=S)(OC)OC)C(=O)OCC (stereo not shown) [Malathion, diethyl[(dimethoxythiophosphinothioyl)thio]butanedioate, reference compound]
pest or weed control at 280 g/ha ([1]; Matricaria, post-emergence, 280 g/ha alone, read-out: Ob (observed injury)): 0% | pest or weed control at 280 g/ha ([2]; Viola tricolor, post-emergence, 280 g/ha alone, read-out: Ob (observed injury)): 0% | pest or weed control at 1120 g/ha ([2]; Viola tricolor, post-emergence, 1120 g/ha alone, read-out: Ob (observed injury)): 0% | pest or weed control at 280 g/ha ([3]; Bassia scoparia, post-emergence, 280 g/ha alone, read-out: Ob (observed injury)): 0% | pest or weed control at 280 g/ha ([4]; Salsola tragus, post-emergence, 280 g/ha alone, read-out: Ob (observed injury)): 0% | Ob (observed injury) ([5]; 280 g/ha alone): 0% | Ob (observed injury) ([5]; 1120 g/ha alone): 0% | Ob (observed injury) ([6]; 280 g/ha alone): 0% | Ob (observed injury) ([6]; 1120 g/ha alone): 0%

COc1c(Cl)ccc(-c2cc(N)c(Cl)c(C(=O)O)n2)c1F [Compound I Acid, 4-Amino-3-chloro-6-(4-chloro-2-fluoro-3-methoxyphenyl)pyridine-2-carboxylic acid]
pest or weed control at 35 g/ha [2, 10]: 60% | pest or weed control at 35 g/ha [7]: 72% | pest or weed control at 35 g/ha [3, 11]: 98% | pest or weed control at 35 g/ha [4, 12]: 89% | Ob (observed injury) ([5]; 35 g/ha alone): 22% | Ob (observed injury) ([6]; 35 g/ha alone): 15%

COC(=O)c1nc(-c2ccc(Cl)c(OC)c2F)cc(N)c1Cl [Compound I Methyl ester, 4-amino-3-chloro-6-(4-chloro-2-fluoro-3-methoxyphenyl)pyridine-2-carboxylic acid methyl ester]
pest or weed control at 8.75 g/ha ([1]; Matricaria, post-emergence, 8.75 g/ha alone, read-out: Ob (observed injury)): 67% | pest or weed control at 17.5 g/ha ([1]; Matricaria, post-emergence, 17.5 g/ha alone, read-out: Ob (observed injury)): 80% | pest or weed control at 35 g/ha ([1]; Matricaria, post-emergence, 35 g/ha alone, read-out: Ob (observed injury)): 88% | MATCH Ob [1, 13]: 88 | Ob (observed injury) ([8]; 17.5 g/ha alone): 90% | pest or weed control at 8.75 g/ha ([2]; Viola tricolor, post-emergence, 8.75 g/ha alone, read-out: Ob (observed injury)): 36% | pest or weed control at 17.5 g/ha ([2]; Viola tricolor, post-emergence, 17.5 g/ha alone, read-out: Ob (observed injury)): 44% | pest or weed control at 35 g/ha [2, 10]: 56% | VIOTR Ob [2, 13]: 56 | pest or weed control at 8.75 g/ha ([7]; 8.75 g/ha alone): 36% | pest or weed control at 17.5 g/ha ([7]; 17.5 g/ha alone): 47% | pest or weed control at 35 g/ha [7]: 73% | Ob (observed injury) ([9]; 17.5 g/ha alone): 62% | pest or weed control at 8.75 g/ha ([3]; Bassia scoparia, post-emergence, 8.75 g/ha alone, read-out: Ob (observed injury)): 79% | pest or weed control at 17.5 g/ha ([3]; Bassia scoparia, post-emergence, 17.5 g/ha alone, read-out: Ob (observed injury)): 88% | pest or weed control at 35 g/ha [3, 11]: 97% | KCHSC Ob [3, 13]: 97 | pest or weed control at 8.75 g/ha ([4]; Salsola tragus, post-emergence, 8.75 g/ha alone, read-out: Ob (observed injury)): 71% | pest or weed control at 17.5 g/ha ([4]; Salsola tragus, post-emergence, 17.5 g/ha alone, read-out: Ob (observed injury)): 81% | pest or weed control at 35 g/ha [4, 12]: 89% | SASKR Ob [4, 13]: 89 | Ob (observed injury) ([5]; 35 g/ha alone): 39% and 41% | TRZAS Ob [5, 13]: 41 | Ob (observed injury) ([6]; 35 g/ha alone): 28% and 32% | HORVS Ob [6, 13]: 32

CC(C)[C@@H](Nc1ccc(C(F)(F)F)cc1Cl)C(=O)OC(C#N)c1cccc(Oc2ccccc2)c1 (stereo partly drawn) [Tau-fluvalinate, cyano(3-phenoxyphenyl)methyl N-[2-chloro-4-(trifluoromethyl)phenyl]-D-valinate, reference compound]
Ob (observed injury) ([8]; 48 g/ha alone): 0% | pest or weed control at 48 g/ha ([2]; Viola tricolor, post-emergence, 48 g/ha alone, read-out: Ob (observed injury)): 0% | Ob (observed injury) ([9]; 48 g/ha alone): 0%
